Data on 32 molecules can be found in BindingDB's records for doi:10.1021/jm00028a009 (Cambridge Neuroscience, 1994).

This assay addresses Sigma non-opioid intracellular receptor 1 (Cavia porcellus). Description: Tested in vitro for the concentration required to inhibit specific [3H]DTG radioligand binding to sigma receptor on guinea pig brain membrane.

As to `CCc1cccc(N=C(N)Nc2cccc(CC)c2)c1`, the IC50 is 8 nM.

The molecule `CC(C)c1ccc(N=C(N)Nc2ccc(C(C)C)cc2)cc1` yielded an IC50 of 242 nM.

For `NC(=Nc1ccc(Br)cc1)Nc1ccc(Br)cc1`, the IC50 was 33 nM.

`CC(C)c1cccc(N=C(N)Nc2cccc(C(C)C)c2)c1` displayed an IC50 of 96 nM.

`NC(=Nc1cccc2ccccc12)Nc1cccc2ccccc12` returned an IC50 of 165 nM.

For the molecule `N=C(N1CCc2ccccc21)N1CCc2ccccc21` [C-[Bis-(2,3-dihydro-indol-1-yl)]-methyleneamine], the IC50 is 7180 nM.

In the case of `CN(C(N)=Nc1cccc(N)c1)c1cccc2ccccc12` [N'-(3-Amino-phenyl)-N-methyl-N-naphthalen-1-yl-guanidine], the IC50 stood at 13000 nM.

In the case of `CCc1cccc(N=C(N)N(C)c2cccc3ccccc23)c1` [N'-(3-Ethyl-phenyl)-N-methyl-N-naphthalen-1-yl-guanidine], the IC50 came out at 1000 nM. This IC50 lies about 13-fold lower than the previous one.

`COc1cccc(N=C(N)Nc2cccc(OC)c2)c1` [N,N'-Bis-(3-methoxy-phenyl)-guanidine] gave an IC50 of 351 nM. This IC50 is about 2.8-fold lower than that of the molecule before.

Turning to `NC(=Nc1cccc2c1CCC2)Nc1cccc2c1CCC2` [N,N'-Di-indan-4-yl-guanidine], the IC50 is 29 nM. Against the preceding molecule, the IC50 is about 12-fold lower.

Molecule `NC(=Nc1cccc2ccccc12)N(c1ccccc1)c1cccc2ccccc12` [N,N'-Di-naphthalen-1-yl-N-phenyl-guanidine] yielded an IC50 of 7930 nM.

Take `NC(=Nc1ccc2ccccc2c1)Nc1ccc2ccccc2c1` [N,N'-Di-naphthalen-2-yl-guanidine]: the IC50 amounted to 92 nM. Compared with the last molecule, the IC50 is about 86-fold lower.

In turn, `CN(C(=N)N(C)c1cccc2ccccc12)c1cccc2ccccc12` [N,N'-Dimethyl-N,N'-di-naphthalen-1-yl-guanidine] registered an IC50 of 10700 nM.

In turn, `NC(=Nc1cccc2ccccc12)Nc1ccccc1I` [N-(2-Iodo-phenyl)-N'-naphthalen-1-yl-guanidine] yielded an IC50 of 40 nM.

Molecule `CC(C)c1ccccc1N=C(N)Nc1cccc2ccccc12` [N-(2-Isopropyl-phenyl)-N'-naphthalen-1-yl-guanidine] came in with an IC50 of 91 nM.

On to `CN(C(N)=Nc1cccc2ccccc12)c1cccc(N)c1` [N-(3-Amino-phenyl)-N-methyl-N'-naphthalen-1-yl-guanidine], for which the IC50 was 2700 nM. This IC50 is about 30-fold higher than that of the molecule before.

`CN(C(N)=Nc1cccc2ccccc12)c1cccc(N=[N+]=[N-])c1` [N-(3-Azido-phenyl)-N-methyl-N'-naphthalen-1-yl-guanidine] displayed an IC50 of 3020 nM.

As for `CCc1cccc(N=C(N)N2CCC(c3ccccc3)CC2)c1` [N-(3-Ethyl-phenyl)-4-phenyl-piperidine-1-carboxamidine], the IC50 is 60 nM.

`CCc1cccc(NC(N)=Nc2cccc3ccccc23)c1` [N-(3-Ethyl-phenyl)-N'-naphthalen-1-yl-guanidine] showed an IC50 of 54 nM.

As for `CCc1cccc(N(C)C(=N)N(C)c2cccc3ccccc23)c1` [N-(3-Ethyl-phenyl)-N,N'-dimethyl-N'-naphthalen-1-yl-guanidine], the IC50 is 1210 nM.

As for `CCN(C(N)=Nc1cccc2ccccc12)c1cccc2ccccc12` [N-Ethyl-N,N'-di-naphthalen-1-yl-guanidine], the IC50 came out at 6130 nM.

With `CCc1cccc(N(CC)C(N)=Nc2cccc3ccccc23)c1` [N-Ethyl-N-(3-ethyl-phenyl)-N'-naphthalen-1-yl-guanidine], the IC50 came out at 2190 nM.

`CN(/C(N)=N/c1cccc2ccccc12)c1cccc([N+](=O)[O-])c1` [N-Methyl-N'-naphthalen-1-yl-N-(3-nitro-phenyl)-guanidine]: the IC50 turned out to be 6260 nM.

`CN(C(N)=Nc1cccc2ccccc12)c1ccccc1` [N-Methyl-N'-naphthalen-1-yl-N-phenyl-guanidine]: the IC50 was 2900 nM.

`Cc1cccc(N=C(N)N(C)c2cccc(C)c2)c1` [N-Methyl-N,N'-di-m-tolyl-guanidine]: the IC50 came out at 247 nM.

Consider `CN(C(=N)N(c1ccccc1)c1cccc2ccccc12)c1cccc2ccccc12` [N-Methyl-N,N'-di-naphthalen-1-yl-N'-phenyl-guanidine], for which the IC50 was 11000 nM.

Consider `CN(C(N)=Nc1cccc2ccccc12)c1cccc2ccccc12` [N-Methyl-N,N'-di-naphthalen-1-yl-guanidine], for which the IC50 was 4800 nM.

In turn, `C/[N+](=C(/[NH-])Nc1cccc([N+](=O)[O-])c1)c1cccc2ccccc12` [N-Methyl-N-naphthalen-1-yl-N'-(3-nitro-phenyl)-guanidine] showed an IC50 of 2640 nM.

In the case of `NC(=Nc1cccc2ccccc12)N1CCC(c2ccccc2)CC1` [N-Naphthalen-1-yl-4-phenyl-piperidine-1-carboxamidine], the IC50 was 343 nM.

In the case of `Cc1cccc(NC(N)=Nc2cccc3ccccc23)c1` [N-Naphthalen-1-yl-N'-m-tolyl-guanidine], the IC50 was found to be 75 nM. This IC50 lies about 4.6-fold lower than the previous one.

Regarding `NC(=Nc1cccc2ccccc12)N1CCCCCC1` [N-Naphthalen-1-yl-azepane-1-carboxamidine], the IC50 is 1410 nM.

With `NC(=Nc1cccc2ccccc12)N1CCCCC1` [N-Naphthalen-1-yl-piperidine-1-carboxamidine], the IC50 amounted to 1070 nM.

For orientation: IC50 means the concentration needed to halve the response being measured. Read a low IC50 as greater potency.
